How the values were obtained:
T lymphocytes = test: Laser scanning confocal ratiometric imaging of T lymphocytes; format: cell-based
Description: FIG. 9: Laser scanning confocal imaging of T lymphocytes stained with annexin V-FITC (a) and F2N12S (b and c). Combination of transmission and fluorescence images of cells treated with actinomycin D for 18 hours (please complete this sentence). […] Due to their low binding to annexin V, normal cells are not visualized in the fluorescence images. (b and c) Ratiometric images of normal (b) and actinomycin D-treated (c) cells stained with 0.2 μM F2N12S. […] The size of the images is 60×73.1 μm.
FIG. 10: Time-series of confocal fluorescence ratiometric images of actinomycin D-treated T lymphocytes stained with F2N12S. The cells were treated with actinomycin D for 18 hours and then, incubated with the probe (0.2 μM) for 5 min. Images were recorded at 1 min (a), 10 min (b) and 20 min (c) post incubation. […] The size of the images is 60×73.1 μm.
(§1) For collecting cell images, a Laser Scanning Confocal Imaging System MRC-1024 (Bio-Rad) was used. Cells in chambered cover glass were prepared by following the preparation procedure described above. The 442 nm line of a HeCd laser was used as the excitation light source. Emission was collected by using two filters: 485/30 for the N* band and 585LP for the T* band. Collected images were analyzed by the Amira 3.0 software.
To further compare F2N12S and annexinV-derived probes, two-color ratiometric images of F2N12S-labeled cells undergoing apoptosis were recorded by laser scanning confocal microscopy and compared with intensity based images obtained using annexin V-FITC. […] Moreover, the fluorescence intensity of apoptotic cells varies considerably from cell to cell. These differences are difficult to interpret since the intensity depends on the probe concentration as well as on the size and confluence of the cells. […] According to our spectroscopy and flow cytometry data, the latter cells are apoptotic. […] Thus, unlike annexin V-FITC, these probes provide an absolute parameter, the intensity ratio, which can be calibrated, and can characterize the level of apoptosis independently of the probe/cell concentration and the excitation light intensity. In addition, the inventors have observed that in normal cells and cells on the initial steps of apoptosis, the T*/N* intensity ratio is not evenly distributed within the plasma membrane of a given cell. This may indicate an inhomogeneous lipid composition of their plasma membranes that is likely related to the presence of lipid domains.
The inventors also follow apoptotic transformation of the plasma membrane as a function of time. Normal and actinomycin D-treated cells were stained with the corresponding probe and the fluorescence images were subsequently recorded during 20 min. […]

CEM T cells = test: Two-color confocal ratiometric imaging of normal and apoptotic cells; format: cell-based, human
Description: FIG. 5: Confocal fluorescence ratiometric images of CEM cells stained with F2N12S: normal cells (a); apoptotic cells, obtained by FITC-annexin based sorting of cells treated with actinomycin (b); and actinomycin-treated without cell sorting (c). The images were recorded after a 10 min incubation of the probe with the cells. Scale bar, 10 μm.
Human lymphoid CEM T cells were cultured in X-vivo 15 medium (Cambrex, France) at 37° C. in humidified 5% CO2 atmosphere. Cell viability was checked by trypan blue exclusion. Cells were seeded at 5×10^5 cells/ml in the presence or absence of actinomycin D (0.5 μg/ml) for 18 h. Cells were pelleted by centrifugation at 1500 rpm for 5 min and resuspended at 1×10^6 cells/ml in X-vivo 15 medium for experiments.
The cells were washed twice by HBSS before each experiment to eliminate fetal bovine serum. In sorting experiments, cells were resuspended in the binding buffer and labeled with the annexin V-FITC kit. For fluorescence measurements with the probe of the invention F2N12S (fluorometry, flow cytometry and confocal microscopy), cells were resuspended in HBSS with 0.1 μM F2N12S. Then, the cell suspension was placed in a shaker bath for 10 min in the incubator. The staining pattern of the cells was checked with a Confocal Imaging System MRC-1024 (BioRad) to ascertain that fluorescence originates from the plasma membrane.
as §1
Two-color confocal fluorescence microscopy of CEM T cells stained with F2N12S was performed. Emission light was collected in two spectral regions: at 470-500 nm to monitor the emission of the N* band and above 585 nm to collect the emission of the T* band. Ratiometric images were obtained by dividing the intensity of the T* band by the intensity of the N* band and were used to monitor the cell plasma membrane changes induced by addition of actinomycin D (FIG. 5, a-c).

[1] = actinomycin D-treated cells not sorted by cytometry

1-dodecanaminium, N-[[2-[4-Diethylaminophenyl]-3-hydroxychromon-6-yl]-methyl]-N-methyl-N-(3-sulfopropyl)-, inner salt [F2N12S]
time-dependent change of the fluorescence images (T lymphocytes; actinomycin D-treated cells, images recorded during 20 min): relatively fast change in the emission color
which cells are stained in fluorescence images (T lymphocytes; normal and actinomycin D-treated cells): stains both normal (FIG. 9b) and apoptotic cells (FIG. 9c) but in different colors
fluorescence intensity ratio T*/N*, apoptotic cells (CEM T cells; [1]): ~0.25
fluorescence intensity ratio T*/N*, living cells (CEM T cells; [1]): ~1
fluorescence intensity ratio T*/N* at the plasma membrane (CEM T cells; apoptotic cells obtained by cell sorting, average): around 0.25
change in the T*/N* ratio, non-treated versus apoptotic cells (CEM T cells; confocal imaging): 4 fold
fluorescence intensity ratio T*/N* at the plasma membrane (CEM T cells; non-treated cells, N* 470-500 nm, T* above 585 nm): ~1

Reference: US7880021B2, “Compounds and kits for the detection and the quantification of cell apoptosis” (Centre National de la Recherche Scientifique (CNRS), priority 2005, dated 2011)
